Patent US12109196B2, “Non-sedating dexmedetomidine treatment regimens” (BioXcel Therapeutics, Inc., priority 2019, dated 2024)
Where a name gives a salt, the structure may show the parent alone. Read-outs that look alike come from different tables or passages of the source.

Legend:
[1] = system: acute agitation associated with schizophrenia, schizoaffective disorder or schizophreniform disorder; details: 2 hours post-dose
Experimental: PEC comprised 5 items associated with agitation: poor impulse control, tension, hostility, uncooperativeness, and excitement; each scored 1 (minimum) to 7 (maximum). The PEC, the sum of these 5 subscales, thus ranging from 5 to 35.
Efficacy Analyses: The primary efficacy endpoint of the study was the absolute change from baseline in PEC score at 120 mins (2 hours). The intent to treat population (ITT) was analyzed and consisted of all patients who took any study medication and who had both baseline and at least 1 efficacy assessment after dosing. Analyses were conducted using a restricted maximum likelihood repeated measures mixed model on change from baseline values with baseline as a covariate and timepoint, and its interaction with treatment groups as repeated measures using an unstructured covariance structure. Responder comparisons were made via Fisher's exact test.
There were 5 dose cohorts (20 μg, 60 μg, 80 μg, 120 μg and 180 μg) with 18 active patients (total of 90 patients) and 9 placebo patients (total of 45 patients) in each cohort. Active patients in each of the 5 dose cohorts were compared to placebo patients from all 5 cohorts (pooled placebo group).

[2] = Protocol: (§1) Patients 5, 7, 8 and 9 received placebo.
The level of dexmedetomidine in the plasma of patients was also measured over the time of infusion.

[3] = system: agitation in subjects suffering from schizophrenia
Text: (§2) Another Key Objective of the study was to determine the reduction in the level of agitation, as determined by their PEC score, at the doses to achieve a RASS of −1.
as §1
(§3) CGI-I focused on the severity of agitation rather than the severity of the illness. • (4) After the infusion was stopped, the participants were judged for the suitability for discharge by the principal investigator or designee as witnessed by a return to their baseline level of alertness and awareness with no impairment in balance, gait, and reaction time as determined by the principal investigator or designee. Results (A) Efficacy Study RASS (Richmond Agitation-Sedation Scale)

[4] = system: subjects suffering from schizophrenia
Text: as §2, §1, §3

Structure (SMILES): Cc1cccc([C@H](C)c2cnc[nH]2)c1C [dexmedetomidine hydrochloride, (+) 4-(S)-[1-(2,3-dimethylphenyl)ethyl]-1H-imidazole]
- PANSS-PEC Total Score, Change from baseline, mean (SD) ([1]; 80 μg): −7.3
- PANSS-PEC Total Score, Change from baseline, mean (SD) ([1]; 120 μg): −9.2
- PANSS-PEC Total Score, Change from baseline, mean (SD) ([1]; 180 μg): −10.8
- Plasma level concentration ([2]; Patient 1 (Treatment), 0 Mins): BLQ
- Plasma level concentration ([2]; Patient 1 (Treatment), 15 Mins): 0.02245 ng/mL
- Plasma level concentration ([2]; Patient 1 (Treatment), 30 Mins): 0.01472 ng/mL
- Plasma level concentration ([2]; Patient 2 (Treatment), 0 Mins): BLQ
- Plasma level concentration ([2]; Patient 2 (Treatment), 30 Mins): BLQ
- Plasma level concentration ([2]; Patient 3 (Treatment), 30 Mins): BLQ
- Plasma level concentration ([2]; Patient 3 (Treatment), 45 Mins): BLQ
- Plasma level concentration ([2]; Patient 4 (Treatment), 0 Mins): BLQ
- Plasma level concentration ([2]; Patient 4 (Treatment), 15 Mins): BLQ
- Plasma level concentration ([2]; Patient 4 (Treatment), 30 Mins): BLQ
- Plasma level concentration ([2]; Patient 4 (Treatment), 45 Mins): BLQ
- Plasma level concentration ([2]; Patient 4 (Treatment), 60 Mins): BLQ
- Plasma level concentration ([2]; Patient 4 (Treatment), 75 Mins): BLQ
- Plasma level concentration ([2]; Patient 4 (Treatment), 90 Mins): 0.0443 ng/mL
- Plasma level concentration ([2]; Patient 11 (Treatment), 0 Mins): BLQ
- Plasma level concentration ([2]; Patient 11 (Treatment), 15 Mins): 0.04101 ng/mL
- Plasma level concentration ([2]; Patient 11 (Treatment), 30 Mins): 0.06291 ng/mL
- Plasma level concentration ([2]; Patient 11 (Treatment), 45 Mins): 0.12407 ng/mL
- Plasma level concentration ([2]; Patient 11 (Treatment), 60 Mins): 0.15047 ng/mL
- Plasma level concentration ([2]; Patient 12 (Treatment), 0 Mins): BLQ
- Plasma level concentration ([2]; Patient 12 (Treatment), 15 Mins): BLQ
- Plasma level concentration ([2]; Patient 12 (Treatment), 30 Mins): 0.04487 ng/mL
- Plasma level concentration ([2]; Patient 12 (Treatment), 45 Mins): 0.05051 ng/mL
- Plasma level concentration ([2]; Patient 12 (Treatment), 60 Mins): 0.1086 ng/mL
- Plasma level concentration ([2]; Patient 12 (Treatment), 75 Mins): 0.15854 ng/mL
- Plasma level concentration ([2]; Patient 12 (Treatment), 90 Mins): 0.23783 ng/mL
- Plasma level concentration ([2]; Patient 12 (Treatment), 105 Mins): 0.2673 ng/mL
- Plasma level concentration ([2]; Patient 14 (Treatment), 0 Mins): BLQ
- Plasma level concentration ([2]; Patient 14 (Treatment), 15 Mins): BLQ
- Plasma level concentration ([2]; Patient 14 (Treatment), 30 Mins): 0.05266 ng/mL
- Plasma level concentration ([2]; Patient 14 (Treatment), 45 Mins): 0.04653 ng/mL
- Plasma level concentration ([2]; Patient 14 (Treatment), 60 Mins): 0.4063 ng/mL
- Plasma level concentration ([2]; Patient 16 (Treatment), 0 Mins): BLQ
- Plasma level concentration ([2]; Patient 16 (Treatment), 15 Mins): 0.00256 ng/mL
- Plasma level concentration ([2]; Patient 16 (Treatment), 30 Mins): 0.01559 ng/mL
- Plasma level concentration ([2]; Patient 16 (Treatment), 45 Mins): 0.04117 ng/mL
- Plasma level concentration ([2]; Patient 16 (Treatment), 60 Mins): 0.06788 ng/mL
- Plasma level concentration ([2]; Patient 16 (Treatment), 75 Mins): 0.07226 ng/mL
- Plasma level concentration ([2]; Patient 17 (Treatment), 0 Mins): BLQ
- Plasma level concentration ([2]; Patient 17 (Treatment), 15 Mins): 0.01587 ng/mL
- Plasma level concentration ([2]; Patient 17 (Treatment), 30 Mins): BLQ
- Plasma level concentration ([2]; Patient 17 (Treatment), 45 Mins): 0.03993 ng/mL
- Plasma level concentration ([2]; Patient 18 (Treatment), 0 Mins): BLQ
- Plasma level concentration ([2]; Patient 18 (Treatment), 15 Mins): 0.04836 ng/mL
- Plasma level concentration ([2]; Patient 18 (Treatment), 30 Mins): 0.05453 ng/mL
- Patients (out of 10) in the treatment arm with agitation reduced to a PEC score of 7 or below ([3]; IV infusion): 9
- Subjects (of 10) with >=50% reduction in PEC score ([3]; IV route): 7
- PEC value after infusion start ([3]; Patient 1 (treatment arm), 0 Mins): 9
- PEC value after infusion start ([3]; Patient 1 (treatment arm), 15 Mins): 5
- PEC value after infusion start ([3]; Patient 2 (treatment arm), 0 Mins): 16
- PEC value after infusion start ([3]; Patient 2 (treatment arm), 15 Mins): 13
- PEC value after infusion start ([3]; Patient 2 (treatment arm), 30 Mins): 12
- PEC value after infusion start ([3]; Patient 2 (treatment arm), 45 Mins): 11
- PEC value after infusion start ([3]; Patient 2 (treatment arm), 60 Mins): 9
- PEC value after infusion start ([3]; Patient 2 (treatment arm), 75 Mins): 7
- PEC value after infusion start ([3]; Patient 3 (treatment arm), 0 Mins): 12
- PEC value after infusion start ([3]; Patient 3 (treatment arm), 15 Mins): 12
- PEC value after infusion start ([3]; Patient 3 (treatment arm), 30 Mins): 10
- PEC value after infusion start ([3]; Patient 3 (treatment arm), 45 Mins): 7
- PEC value after infusion start ([3]; Patient 3 (treatment arm), 60 Mins): 6
- PEC value after infusion start ([3]; Patient 4 (treatment arm), 0 Mins): 9
- PEC value after infusion start ([3]; Patient 4 (treatment arm), 15 Mins): 9
- PEC value after infusion start ([3]; Patient 4 (treatment arm), 30 Mins): 8
- PEC value after infusion start ([3]; Patient 4 (treatment arm), 45 Mins): 8
- PEC value after infusion start ([3]; Patient 4 (treatment arm), 60 Mins): 7
- PEC value after infusion start ([3]; Patient 4 (treatment arm), 75 Mins): 7
- PEC value after infusion start ([3]; Patient 4 (treatment arm), 90 Mins): 7
- PEC value after infusion start ([3]; Patient 4 (treatment arm), 105 Mins): 7
- PEC value after infusion start ([3]; Patient 4 (treatment arm), 120 Mins): 7
- PEC value after infusion start ([3]; Patient 4 (treatment arm), 135 Mins): 7
- PEC value after infusion start ([3]; Patient 11 (treatment arm), 0 Mins): 13
- PEC value after infusion start ([3]; Patient 11 (treatment arm), 15 Mins): 13
- PEC value after infusion start ([3]; Patient 11 (treatment arm), 30 Mins): 11
- PEC value after infusion start ([3]; Patient 11 (treatment arm), 45 Mins): 9
- PEC value after infusion start ([3]; Patient 11 (treatment arm), 60 Mins): 9
- PEC value after infusion start ([3]; Patient 11 (treatment arm), 75 Mins): 7
- PEC value after infusion start ([3]; Patient 12 (treatment arm), 0 Mins): 13
- PEC value after infusion start ([3]; Patient 12 (treatment arm), 15 Mins): 13
- PEC value after infusion start ([3]; Patient 12 (treatment arm), 30 Mins): 13
- PEC value after infusion start ([3]; Patient 12 (treatment arm), 45 Mins): 10
- PEC value after infusion start ([3]; Patient 12 (treatment arm), 60 Mins): 10
- PEC value after infusion start ([3]; Patient 12 (treatment arm), 75 Mins): 8
- PEC value after infusion start ([3]; Patient 12 (treatment arm), 90 Mins): 6
- PEC value after infusion start ([3]; Patient 12 (treatment arm), 105 Mins): 5
- PEC value after infusion start ([3]; Patient 14 (treatment arm), 0 Mins): 10
- PEC value after infusion start ([3]; Patient 14 (treatment arm), 15 Mins): 9
- PEC value after infusion start ([3]; Patient 14 (treatment arm), 30 Mins): 6
- PEC value after infusion start ([3]; Patient 14 (treatment arm), 45 Mins): 6
- PEC value after infusion start ([3]; Patient 14 (treatment arm), 60 Mins): 5
- PEC value after infusion start ([3]; Patient 14 (treatment arm), 75 Mins): 5
- PEC value after infusion start ([3]; Patient 16 (treatment arm), 0 Mins): 10
- PEC value after infusion start ([3]; Patient 16 (treatment arm), 15 Mins): 9
- PEC value after infusion start ([3]; Patient 16 (treatment arm), 30 Mins): 6
- PEC value after infusion start ([3]; Patient 16 (treatment arm), 45 Mins): 6
- PEC value after infusion start ([3]; Patient 16 (treatment arm), 60 Mins): 7
- PEC value after infusion start ([3]; Patient 16 (treatment arm), 75 Mins): 5
- PEC value after infusion start ([3]; Patient 17 (treatment arm), 0 Mins): 10
- PEC value after infusion start ([3]; Patient 17 (treatment arm), 15 Mins): 8
- PEC value after infusion start ([3]; Patient 17 (treatment arm), 30 Mins): 7
- PEC value after infusion start ([3]; Patient 17 (treatment arm), 45 Mins): 5
- Patients (out of 10) in the treatment arm who achieved a RASS score of at least −1 ([4]; IV infusion from 0.2 mcg/kg/hr rising 0.1 mcg/kg/hr every 30 minutes): 9
- RASS value after infusion start ([4]; Patient 1 (treatment arm), 0 minutes): 1
- RASS value after infusion start ([4]; Patient 1 (treatment arm), 15 minutes): −2
- RASS value after infusion start ([4]; Patient 2 (treatment arm), 0 minutes): 3
- RASS value after infusion start ([4]; Patient 2 (treatment arm), 30 minutes): 0
- RASS value after infusion start ([4]; Patient 2 (treatment arm), 60 minutes): 0
- RASS value after infusion start ([4]; Patient 2 (treatment arm), 75 minutes): −1
- RASS value after infusion start ([4]; Patient 3 (treatment arm), 0 minutes): 1
- RASS value after infusion start ([4]; Patient 3 (treatment arm), 30 minutes): 0
- RASS value after infusion start ([4]; Patient 3 (treatment arm), 45 minutes): 0
- RASS value after infusion start ([4]; Patient 3 (treatment arm), 60 minutes): −1
- RASS value after infusion start ([4]; Patient 4 (treatment arm), 0 minutes): 1
- RASS value after infusion start ([4]; Patient 4 (treatment arm), 30 minutes): 0
- RASS value after infusion start ([4]; Patient 4 (treatment arm), 60 minutes): 0
- RASS value after infusion start ([4]; Patient 4 (treatment arm), 90 minutes): 0
- RASS value after infusion start ([4]; Patient 4 (treatment arm), 120 minutes): 0
- RASS value after infusion start ([4]; Patient 4 (treatment arm), […]): 0
- RASS value after infusion start ([4]; Patient 11 (treatment arm), 0 minutes): 1
- RASS value after infusion start ([4]; Patient 11 (treatment arm), 30 minutes): 0
- RASS value after infusion start ([4]; Patient 11 (treatment arm), 60 minutes): 0
- RASS value after infusion start ([4]; Patient 11 (treatment arm), 75 minutes): −1
- RASS value after infusion start ([4]; Patient 12 (treatment arm), 0 minutes): 1
- RASS value after infusion start ([4]; Patient 12 (treatment arm), 30 minutes): 0
- RASS value after infusion start ([4]; Patient 12 (treatment arm), 60 minutes): 0
- RASS value after infusion start ([4]; Patient 12 (treatment arm), 90 minutes): 0
- RASS value after infusion start ([4]; Patient 12 (treatment arm), 120 minutes): −1
- RASS value after infusion start ([4]; Patient 14 (treatment arm), 0 minutes): 1
- RASS value after infusion start ([4]; Patient 14 (treatment arm), 30 minutes): 0
- RASS value after infusion start ([4]; Patient 14 (treatment arm), 60 minutes): 0
- RASS value after infusion start ([4]; Patient 14 (treatment arm), 75 minutes): −1
- RASS value after infusion start ([4]; Patient 16 (treatment arm), 0 minutes): 1
- RASS value after infusion start ([4]; Patient 16 (treatment arm), 30 minutes): 0
- RASS value after infusion start ([4]; Patient 16 (treatment arm), 60 minutes): 0
- RASS value after infusion start ([4]; Patient 16 (treatment arm), 75 minutes): −1
- RASS value after infusion start ([4]; Patient 17 (treatment arm), 0 minutes): 1
- RASS value after infusion start ([4]; Patient 17 (treatment arm), 30 minutes): 0
- RASS value after infusion start ([4]; Patient 17 (treatment arm), 45 minutes): −1
- RASS value after infusion start ([4]; Patient 18 (treatment arm), 0 minutes): 0
- RASS value after infusion start ([4]; Patient 18 (treatment arm), 15 minutes): −1
